The values that follow come from ChEMBL document CHEMBL5724796, “Tm Shift (DSF) assay results for EUbOPEN Chemogenomics Library” (2024).

One test concerns the target T1, Peregrin (Homo sapiens) (UniProt P55201).
T1 sequence (whole entry): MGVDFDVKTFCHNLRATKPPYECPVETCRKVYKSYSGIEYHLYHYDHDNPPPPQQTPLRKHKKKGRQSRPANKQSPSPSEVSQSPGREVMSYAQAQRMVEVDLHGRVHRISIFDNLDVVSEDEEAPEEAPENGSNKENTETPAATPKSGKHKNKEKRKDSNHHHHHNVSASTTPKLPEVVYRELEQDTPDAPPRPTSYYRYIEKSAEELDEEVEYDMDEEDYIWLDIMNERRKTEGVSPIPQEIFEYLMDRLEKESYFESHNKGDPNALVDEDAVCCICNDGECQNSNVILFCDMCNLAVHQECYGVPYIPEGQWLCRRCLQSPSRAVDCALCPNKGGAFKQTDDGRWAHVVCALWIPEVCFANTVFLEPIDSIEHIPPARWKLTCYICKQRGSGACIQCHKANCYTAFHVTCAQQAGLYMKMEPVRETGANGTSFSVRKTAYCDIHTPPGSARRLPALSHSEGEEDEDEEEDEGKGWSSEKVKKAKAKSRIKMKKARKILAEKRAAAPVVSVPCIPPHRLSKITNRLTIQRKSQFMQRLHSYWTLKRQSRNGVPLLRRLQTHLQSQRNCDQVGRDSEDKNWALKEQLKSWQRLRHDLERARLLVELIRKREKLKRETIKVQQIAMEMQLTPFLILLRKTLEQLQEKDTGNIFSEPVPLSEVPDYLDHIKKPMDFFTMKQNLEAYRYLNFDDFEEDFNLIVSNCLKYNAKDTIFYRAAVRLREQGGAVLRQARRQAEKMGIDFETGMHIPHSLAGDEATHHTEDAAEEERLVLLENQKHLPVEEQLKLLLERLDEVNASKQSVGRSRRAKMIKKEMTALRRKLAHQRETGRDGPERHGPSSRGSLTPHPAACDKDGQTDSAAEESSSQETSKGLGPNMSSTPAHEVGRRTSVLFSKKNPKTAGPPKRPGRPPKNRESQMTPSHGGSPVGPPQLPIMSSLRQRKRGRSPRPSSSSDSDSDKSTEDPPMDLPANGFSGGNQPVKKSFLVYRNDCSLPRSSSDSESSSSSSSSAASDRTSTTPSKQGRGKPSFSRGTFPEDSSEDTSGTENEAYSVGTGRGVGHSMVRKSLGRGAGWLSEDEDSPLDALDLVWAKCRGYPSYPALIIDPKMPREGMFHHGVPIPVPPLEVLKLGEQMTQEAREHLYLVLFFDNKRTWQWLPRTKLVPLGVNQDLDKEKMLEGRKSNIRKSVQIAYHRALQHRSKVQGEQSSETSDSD
As to conditions: Compound concentration 20.0 uM.

The target in test [1] is Fibroblast growth factor receptor 2 (Homo sapiens) (UniProt P21802). As to conditions: Compound concentration 20.0 uM.
Description: Thermal Shift Assay. Domain: start/stop: T457-E768

Values joined by “and” are separate entries in the source; they are usually repeats but may differ in a detail not shown here. Identical values can stand only once. Residues, ends and D or L forms follow the SMILES beside them. *: point of attachment. Boc = CC(C)(C)OC(=O)*

Sequence of Fibroblast growth factor receptor 2 (Homo sapiens) (P21802 22-821 limits assumed): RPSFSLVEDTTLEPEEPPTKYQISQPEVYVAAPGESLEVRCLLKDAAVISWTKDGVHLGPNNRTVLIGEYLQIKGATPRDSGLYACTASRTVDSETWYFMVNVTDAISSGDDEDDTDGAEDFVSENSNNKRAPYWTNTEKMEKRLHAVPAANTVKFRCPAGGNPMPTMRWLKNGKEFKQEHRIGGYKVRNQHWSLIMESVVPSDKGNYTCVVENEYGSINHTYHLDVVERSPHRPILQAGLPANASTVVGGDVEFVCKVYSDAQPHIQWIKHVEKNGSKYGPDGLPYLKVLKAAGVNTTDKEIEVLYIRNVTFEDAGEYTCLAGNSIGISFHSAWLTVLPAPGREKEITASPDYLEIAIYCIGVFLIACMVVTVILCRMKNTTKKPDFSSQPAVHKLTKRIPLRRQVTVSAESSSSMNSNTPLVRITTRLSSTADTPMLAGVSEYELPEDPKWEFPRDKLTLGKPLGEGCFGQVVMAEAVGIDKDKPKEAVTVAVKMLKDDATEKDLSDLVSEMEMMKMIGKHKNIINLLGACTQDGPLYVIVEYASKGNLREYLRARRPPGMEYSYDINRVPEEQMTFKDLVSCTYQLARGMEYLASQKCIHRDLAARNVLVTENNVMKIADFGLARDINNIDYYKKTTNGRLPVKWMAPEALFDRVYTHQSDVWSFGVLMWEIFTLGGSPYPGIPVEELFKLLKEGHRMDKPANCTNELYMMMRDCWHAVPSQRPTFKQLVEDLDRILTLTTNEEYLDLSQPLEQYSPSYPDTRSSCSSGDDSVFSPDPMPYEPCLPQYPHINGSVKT

Take `Fc1ccc(C(OCCN2CCN(CCCc3ccccc3)CC2)c2ccc(F)cc2)cc1`: the ΔTm at Peregrin (Homo sapiens) is 0.78 °C; in test [1], -0.47 °C.
The corresponding values for `C[C@H](Nc1cc(Cl)nc2c1cnn2[C@@H]1O[C@H](COP(=O)(O)CP(=O)(O)O)[C@@H](O)[C@H]1O)c1ccccc1F` are -1.02 °C and 0.2 °C.
The corresponding values for `N[C@](CCCCB(O)O)(CCN1CCCCC1)C(=O)O` are 2.66 °C and 0.8 °C.
For `NC(=O)[C@H]1CCCCc2c1[nH]c1ccc(Cl)cc21`, the values for the ΔTm (at Peregrin (Homo sapiens); in test [1]) were 0.13 °C and 1.09 °C, respectively.
For `O=C(Oc1cccc(F)c1OC(=O)c1cccc(O)c1)c1cccc(O)c1`, the figures for the ΔTm (at Peregrin (Homo sapiens); in test [1]) were 3.01 °C and 0.56 °C, respectively.
Regarding `CC(C)[C@H](NC(=O)[C@H](CCC(=O)O)NC(=O)[C@H](C)NC(=O)OC(C)(C)C)C(=O)N[C@H](C=O)CC(=O)O` (Boc-AEVD-aldehyde), the shift in melting temperature (ΔTm) at Peregrin (Homo sapiens) was -1.27 °C; in test [1], 0.45 °C.
The corresponding values for `CNCc1ccc(-c2cc3cc(F)cc(C(N)=O)c3o2)cc1` are 1.32 °C and 0.56 °C.
Take `Cc1ncc(Cl)cc1NCc1ccc(C(=O)N[C@@H](CC2CCCC2)C(=O)NC2CC2)s1`: the results for the shift in melting temperature (ΔTm) (on Peregrin (Homo sapiens); in test [1]) were -0.65 °C and 1.09 °C, respectively.
For `COC1CCN(C(=O)c2cc(Cc3n[nH]c(=O)c4ccccc34)ccc2F)CC1`, the ΔTm on Peregrin (Homo sapiens) was 1.51 °C; in test [1], -0.21 °C.
The corresponding values for `O=C(O)[C@@H]1CCCN(C(=O)n2cnc(-c3ccc(-c4cnc(N5CCOCC5)nc4)cc3)n2)[C@H]1c1ccccc1` are -0.92 °C and 0.15 °C.
In the same order, the values of `CCN(CC)S(=O)(=O)c1cc(Nc2nccc(-c3ccnc(-c4ccc(NC(=O)NC)cc4)c3)n2)ccc1Cl` are -7.45 °C and -4.8 °C.
In the same order, the values of `CC(C)(OCc1cc(-c2cccc(OC3CC3)c2)n(-c2ccccc2Cl)n1)C(=O)O` are 0.83 °C and -0.52 °C.
Take `CC1C(C#N)=C(N)OC2=C1C(=O)CC(c1cccc3ccccc13)C2` (centres undefined): the results for the ΔTm (on Peregrin (Homo sapiens); in test [1]) were 1.86 °C and -1.52 °C, respectively.
For `COc1cc(-c2cn(C)c(=O)c3cnccc23)cc(OC)c1CN(C)C`, the ΔTm at Peregrin (Homo sapiens) worked out at 6.51 °C; in test [1] it was 0.18 °C.
The corresponding values for `C/C(=N\NC(=O)c1cccc(S(=O)(=O)N2CCOCC2)c1)c1cc(Cl)ccc1O` are 2.44 °C and -0.21 °C.
Turning to `O=c1cc(-c2ccc(O)cc2)oc2c(CN3CCN(Cc4cccs4)CC3)c(O)cc(O)c12`, the ΔTm on Peregrin (Homo sapiens) amounted to 3.1 °C; in test [1], 1.05 °C.
The corresponding values for `Nc1cc(F)ccc1NC(=O)c1ccc(CNC(=O)/C=C/c2cccnc2)cc1` are -0.89 °C and 0.58 °C.
With `Cc1ccc([N+](=O)[O-])cc1S(=O)(=O)N(C)C`, the thermal shift (ΔTm) on Peregrin (Homo sapiens) is 2.57 °C; in test [1], -0.67 °C.
With `O=C(NO)c1ccc(CN2CCCc3cc(Cl)ccc32)cc1`, the ΔTm at Peregrin (Homo sapiens) is -1.37 °C; in test [1], 0.45 °C.
The corresponding values for `OC[C@H]1O[C@@H](c2ccc(Cl)c(Cc3ccc(O[C@H]4CCOC4)cc3)c2)[C@H](O)[C@@H](O)[C@@H]1O` are 1.01 °C and -0.41 °C.
Take `CN1CCN2c3c(cccc31)[C@@H]1CN(CCCC(=O)c3ccc(F)cc3)CC[C@@H]12`: the shift in melting temperature (ΔTm) on Peregrin (Homo sapiens) was -0.19 °C; in test [1] it was -0.37 °C.
The corresponding values for `O=C(O)C1CCCN(CCC=C(c2ccccc2)c2ccccc2)C1` (centres undefined) are 0.59 °C and 0.41 °C.
For `CN1CCN(c2nc(-c3ccc(C(=O)NC4(C(=O)NCC#N)CCCCC4)cc3)cs2)CC1`, the values for the ΔTm (at Peregrin (Homo sapiens); in test [1]) were -1.32 °C and 0.15 °C, respectively.
`CC(C)Cc1nn(C)c(=O)c2c(SCCCO)n(Cc3cccc4ccccc34)cc12`: the ΔTm on Peregrin (Homo sapiens) was -2.75 °C and -3.63 °C; in test [1], 0.03 °C and -0.58 °C.
Regarding `O=C(NCc1ccc(Cl)cc1)C1CCN(S(=O)(=O)c2cc(Cl)cc(Cl)c2)CC1`, the ΔTm on Peregrin (Homo sapiens) is 1.09 °C; in test [1] it was -0.34 °C.
Turning to `c1cncc(-c2cnn[nH]2)c1`, the results for the ΔTm (at Peregrin (Homo sapiens); in test [1]) were 0.36 °C and 0.33 °C, respectively.
On to `O=C1COc2c(cccc2[C@@H](O)CNCCN(C(=O)CCNCCc2ccc(Cl)c(Cl)c2)C2CCCCC2)N1`, for which the ΔTm on Peregrin (Homo sapiens) is -1.84 °C; in test [1] it was 0.36 °C.
In the same order, the values of `O=C(COc1ccc(-c2oc3cc(O)c(C(=O)O)cc3c2C#Cc2cccc(Cl)c2)cc1)NC1CC1` are -1.44 °C and 0.52 °C.
The corresponding values for `Cn1c(=O)cc(N2CCC[C@@H](N)C2)n(Cc2cc(F)ccc2C#N)c1=O` are 0.76 °C and 0.72 °C.
The corresponding values for `Nc1ccc(-c2cccs2)cc1NC(=O)c1ccc(NC=O)cc1` are 2.98 °C and 0.02 °C.
As to `CCN(CCN(C)C)C(=O)CNCc1cc(C(N)=O)ccn1`, the thermal shift (ΔTm) at Peregrin (Homo sapiens) is -1.31 °C; in test [1], 0.97 °C.
In the same order, the values of `Nc1cccc(CNC(=O)c2ccc(Oc3ccc(OCc4cccc(F)c4)cc3)nc2)c1` are 2.81 °C and -0.6 °C.
With `CC(C)c1ccc(-c2cc(=O)c3ccccc3o2)cc1`, the shift in melting temperature (ΔTm) at Peregrin (Homo sapiens) is -0.32 °C; in test [1], -0.13 °C.
Take `Cn1ncc2c(-c3c(-c4ccc(F)cn4)nn4c3COC(C)(C)C4)ccnc21`: the thermal shift (ΔTm) was -1.06 °C at Peregrin (Homo sapiens) and 1.01 °C in test [1].
In the same order, the values of `Cc1nc(-c2cnn(C)c2-c2ccc(C(F)(F)F)cn2)c2c(N3CCC3)ncnn12` are 0.67 °C and 0.06 °C.
In the same order, the values of `CCCCCCCCCCCCC/C=C/[C@@H](O)[C@H](CO)NC(=O)CCl` are 0.52 °C and 0.03 °C.
With `CCCOc1cccc(Oc2cc3c(cc2NS(=O)(=O)c2cccc(C(=O)NCCOCCOCCOCC(=O)N[C@H](C(=O)N4C[C@H](O)C[C@H]4C(=O)NCc4ccc(-c5scnc5C)cc4)C(C)(C)C)c2)n(C)c(=O)n3C)c1`, the thermal shift (ΔTm) was 1.17 °C on Peregrin (Homo sapiens) and -3.12 °C in test [1].
Consider `CCN(c1cc(C#CCN2CCOCC2)cc(C(=O)NCc2c(C)cc(C)[nH]c2=O)c1C)[C@H]1CC[C@H](N(C)CCOC)CC1`, for which the ΔTm was -1.63 °C at Peregrin (Homo sapiens) and 0.42 °C in test [1].
The corresponding values for `O=C(CCCCCCC(=O)Nc1ccc([C@H]2O[C@@H](CSc3nc(-c4ccccc4)c(-c4ccccc4)o3)C[C@@H](c3ccc(CO)cc3)O2)cc1)NO` are 0 °C and -10.7 °C.
Consider `O=C(NO)c1cccc(C(=O)NCCc2ccccc2)c1`, for which the ΔTm at Peregrin (Homo sapiens) is -0.84 °C; in test [1], 0.41 °C.
With `CCC(CC)N(CCN(C)C(=O)CCC(=O)O)Cc1cccc(C(=O)Nc2sc3c(c2C(=O)c2cnn(-c4ccc(Cl)c(C(F)(F)F)c4)c2)CCC(C)(C)C3)c1`, the thermal shift (ΔTm) was -1.97 °C at Peregrin (Homo sapiens) and -2.12 °C in test [1].
The corresponding values for `COc1ccc([C@@H]2CNC(=O)C2)cc1OC1CCCC1` are 0.39 °C and -0.37 °C.
`CC(C)C(=O)SCCCCCCC(=O)Nc1nc(-c2ccccc2)cs1`: the ΔTm on Peregrin (Homo sapiens) was -1.14 °C; in test [1], 1.03 °C.
The corresponding values for `Nc1ncnc2c1ncn2[C@@H]1O[C@H](C[C@@H](N)CC[C@H](N)C(=O)O)[C@@H](O)[C@H]1O` are -1.27 °C and -1.33 °C.
The corresponding values for `C[C@@H]1CN(c2ncc(Cl)c(Nc3ccc4c(c3)n(CCC(C)(C)O)c(=O)n4C)n2)C[C@H](C)C1(F)F` are -5.71 °C and -3.16 °C.
`Cc1cc(Cn2c(=O)n(Cc3cnc(C)s3)c(=O)c3cc(S(=O)(=O)NC4(C)CC4)ccc32)n(C)n1`: the thermal shift (ΔTm) is -1.12 °C at Peregrin (Homo sapiens) and 0.47 °C in test [1].
In the same order, the values of `CC[C@H](C)[C@H](NC(C)=O)C(=O)N[C@@H](CCC(=O)O)C(=O)N[C@H](C(=O)N[C@H](C=O)CC(=O)O)[C@@H](C)O` (Ac-IETD-aldehyde) are -0.66 °C and 0.37 °C.
In the same order, the values of `O=C(O)c1cccc(-c2ccc(-c3cn(C(=O)N4CCCCC4Cc4ccccc4)nn3)cc2)c1` (centres undefined) are -2.81 °C and -0.39 °C.
Consider `Cc1cc(/N=N/c2ccc(S(=O)(=O)Nc3ccccn3)cc2)c(N)cc1O`, for which the ΔTm on Peregrin (Homo sapiens) worked out at 5.09 °C; in test [1] it was 0.17 °C.
In the same order, the values of `CN1C[C@@H]2[C@H](C1)[C@H]2CN(Cc1ccc(F)c(Cl)c1)C(=O)c1cn(C)cn1` are 1.67 °C and 0.05 °C.
For the compound `N#Cc1c(N)[nH]c2cc(/C=C/c3cccc(F)c3)ccc12`, the ΔTm on Peregrin (Homo sapiens) was 6.38 °C; in test [1] it was 1.59 °C.
The corresponding values for `O=C(O)Cc1ccc(Cc2cc(-c3cccc(Cl)c3)nc(C(F)(F)F)c2)cc1` are -0.4 °C and -0.76 °C.
